Paper PMC10041525, “New Dual Inhibitors of Bacterial Topoisomerases with Broad-Spectrum Antibacterial Activity and In Vivo Efficacy against Vancomycin-Intermediate Staphylococcus aureus” (Journal of Medicinal Chemistry, 2023)
≈ marks a conversion by molar mass, not a printed value. Where “and” joins values, the source holds several entries; their conditions need not be identical. Equal entries are not always repeated. Where two headings read alike, the source gives them in different places. One block for each compound: values may come before it.

How the values were obtained:
MCF-7 cell line = assay: MTS cytotoxicity assay; assay type: cell-based, human
Experimental: (§1) Briefly, Eagle’s minimum essential medium (Gibco, Thermo Fisher Scientific, Waltham, MA, USA) was used to culture the cells. The following supplements were added to the medium: L-glutamine (2 mM; Sigma-Aldrich, St. Louis, MO, USA), penicillin (100 U/mL; Sigma-Aldrich, St. Louis, MO, USA), streptomycin (100 μg/mL; Sigma-Aldrich, St. Louis, MO, USA), and fetal bovine serum (10%; Gibco, Thermo Fisher Scientific, Waltham, MA, USA). The cells were maintained at 37 °C in a humidified 5% CO2 atmosphere. The cells were plated in 96-well plates at a density of 2000 cells per well and incubated for 24 h. Then, the cells were treated with selected compounds, positive control (50 μM etoposide), or vehicle control (0.5% DMSO) and incubated for 72 h. The CellTiter96 Aqueous One Solution Reagent (10 μL; Promega, Madison, WI, USA) was then added to each well, and the plate was incubated for another 3 h. Absorbance at 490 nm was measured with a BioTek Synergy 4 Hybrid Microplate Reader (Winooski, VT, USA). Independent experiments were repeated three times, each performed in triplicate. Statistical significance (p < 0.05) was calculated with two-tailed Student’s t test between treated groups and DMSO. IC50 values (concentration of the compound that gives a half-maximal response) are given as average values from the independent measurements and were determined using GraphPad Prism 5.0 software (San Diego, CA, USA)

HepG2 cell line = assay: MTS cytotoxicity assay; assay type: cell-based, human
Experimental: as §1

P. aeruginosa DNA gyrase = target: T1, P. aeruginosa DNA gyrase (Pseudomonas aeruginosa, UniProt Q9I7C2); assay: supercoiling HTS assay; assay type: biochemical
T1 construct: purchased Inspiralis
T1 sequence (Q9I7C2 whole entry): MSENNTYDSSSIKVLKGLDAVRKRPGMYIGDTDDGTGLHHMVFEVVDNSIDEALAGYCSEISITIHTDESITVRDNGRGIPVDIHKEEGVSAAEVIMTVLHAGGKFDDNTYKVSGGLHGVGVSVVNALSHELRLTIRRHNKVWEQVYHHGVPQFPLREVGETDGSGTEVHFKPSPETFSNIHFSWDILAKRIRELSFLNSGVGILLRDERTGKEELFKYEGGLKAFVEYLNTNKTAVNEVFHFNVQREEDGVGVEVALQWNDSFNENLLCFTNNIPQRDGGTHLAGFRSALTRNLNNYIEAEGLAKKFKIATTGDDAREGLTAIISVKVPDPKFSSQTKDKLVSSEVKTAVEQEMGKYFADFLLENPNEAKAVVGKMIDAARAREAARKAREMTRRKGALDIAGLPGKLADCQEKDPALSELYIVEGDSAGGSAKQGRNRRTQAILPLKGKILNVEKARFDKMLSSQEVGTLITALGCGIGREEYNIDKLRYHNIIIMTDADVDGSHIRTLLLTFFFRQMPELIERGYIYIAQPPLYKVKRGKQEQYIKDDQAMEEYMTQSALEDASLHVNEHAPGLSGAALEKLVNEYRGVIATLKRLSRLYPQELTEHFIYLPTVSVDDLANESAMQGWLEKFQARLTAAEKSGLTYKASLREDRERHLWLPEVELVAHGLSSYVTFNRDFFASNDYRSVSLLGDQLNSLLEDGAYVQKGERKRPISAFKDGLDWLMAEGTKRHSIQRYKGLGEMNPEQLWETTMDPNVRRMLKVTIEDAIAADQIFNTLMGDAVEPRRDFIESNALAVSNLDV
T1 sequence (P48372 whole entry, further chain): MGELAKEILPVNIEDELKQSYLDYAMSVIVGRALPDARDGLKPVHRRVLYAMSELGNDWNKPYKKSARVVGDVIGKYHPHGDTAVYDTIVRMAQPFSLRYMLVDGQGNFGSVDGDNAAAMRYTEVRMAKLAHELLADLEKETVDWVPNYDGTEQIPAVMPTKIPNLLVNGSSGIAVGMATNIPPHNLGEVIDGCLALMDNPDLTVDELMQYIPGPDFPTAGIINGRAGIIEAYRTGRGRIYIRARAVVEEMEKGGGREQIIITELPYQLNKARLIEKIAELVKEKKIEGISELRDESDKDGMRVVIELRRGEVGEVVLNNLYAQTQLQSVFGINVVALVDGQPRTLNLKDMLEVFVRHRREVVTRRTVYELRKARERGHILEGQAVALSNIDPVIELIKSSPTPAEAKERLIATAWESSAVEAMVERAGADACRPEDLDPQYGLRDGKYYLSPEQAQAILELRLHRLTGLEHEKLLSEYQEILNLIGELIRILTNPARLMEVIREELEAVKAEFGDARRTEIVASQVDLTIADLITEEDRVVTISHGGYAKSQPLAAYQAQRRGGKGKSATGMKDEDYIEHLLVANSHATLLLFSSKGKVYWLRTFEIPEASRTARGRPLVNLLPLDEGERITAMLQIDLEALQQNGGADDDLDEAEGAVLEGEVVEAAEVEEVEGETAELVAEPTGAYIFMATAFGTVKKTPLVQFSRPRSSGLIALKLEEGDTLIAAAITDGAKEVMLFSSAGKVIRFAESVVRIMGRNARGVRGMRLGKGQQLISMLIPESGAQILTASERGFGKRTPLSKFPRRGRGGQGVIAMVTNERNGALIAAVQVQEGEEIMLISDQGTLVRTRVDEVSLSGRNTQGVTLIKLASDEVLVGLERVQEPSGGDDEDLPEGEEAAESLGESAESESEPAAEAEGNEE
Experimental: The assay to determine IC50 values was performed using assay kits from Inspiralis in accordance with previously described procedures.[43] Seven concentrations of the inhibitors were used to determine IC50 values which were then calculated with GraphPad Prism 6.0 software. Three independent measurements were performed to determine IC50 values, and mean values are reported as the final result.

[1] = test system: E. coli ATCC 25922, CH3130 ΔtolC, CGSC 5163 D22; assay: MIC, wild-type vs efflux-defective and lps mutant; assay type: cell-based; conditions: Escherichia coli
[2] = test system: Neisseria gonorrhoeae (n = 12); assay: MIC broth microdilution at IHMA Europe; assay type: cell-based; conditions: for MIC: Neisseria gonorrhoeae, read-out: MIC; for MIC, all isolates: n = 12
S. pneumoniae ATCC 49619 [3] = assay: IHMA QC MIC; assay type: cell-based
Description: (§2) Supplement jm2c01905_si_004.xlsx, sheet "QC" | column: MIC [µg/mL]

H. influenzae ATCC 49766 = assay: IHMA QC MIC; assay type: cell-based
Description: as §2

H. influenzae ATCC 49247 [4] = assay: IHMA QC MIC; assay type: cell-based
Description: as §2

[5] = test system: N. gonorrhoeae ATCC 49226; assay: IHMA QC MIC; assay type: cell-based; conditions: Neisseria gonorrhoeae, ATCC49226
Description: as §2

hemolysis assay = assay type: cell-based; conditions: human, red blood cells, pH 7.4; read-out: Haemolysis
Experimental: RBCs were washed three times in Tyrode buffer (130 mM NaCl, 4 mM KCl, 2.8 mM Na acetate, 1 mM MgCl2, 10 mM HEPES, 10 mM glucose, 1 mM CaCl2, adjusted to pH 7.4) and resuspended in the same buffer. Final concentrations in the hemolysis assay were 100 μM compound, 1% DMSO, and 50% RBC, assayed in a 200 μL volume in a microtiter plate. The mixture was incubated at 37 °C for 45 min with shaking (250 rpm). After incubation, RBCs were removed by centrifugation, clear plasma was transferred to a fresh plate, and the amount of hemoglobin was measured using a spectrophotometer at 540 nm. The complete lysis control contained 2% Triton X-100 (in Tyrode buffer) instead of compound; the negative control contained Tyrode buffer but no compound. Percent hemolysis was calculated as: [Abs compound] – [Abs negative control]/[Abs complete lysis control] – [Abs negative control] × 100. Values greater than 1% hemolysis at 100 μM were regarded as a red flag.

E. faecalis ATCC 29212 = test system: E. faecalis ATCC 29212; set-up: method as in earlier work; conditions: QC range for E. faecalis ATCC 29212, ref CLSI; cited from earlier work
E. coli ATCC 25922 = test system: E. coli ATCC 25922; set-up: method as in earlier work; conditions: QC range for E. coli ATCC 25922, ref CLSI; cited from earlier work
H. influenzae ATCC 49247 [6] = test system: H. influenzae ATCC 49247; set-up: method as in earlier work; conditions: QC range for H. influenzae ATCC 49247, ref CLSI; cited from earlier work
S. pneumoniae ATCC 49619 [7] = test system: S. pneumoniae ATCC 49619; set-up: method as in earlier work; conditions: QC range for S. pneumoniae ATCC 49619, ref CLSI; cited from earlier work
[8] = QC strain S. pneumoniae ATCC 49619, test date 2021-11-26
[9] = Streptococcus pneumoniae, ATCC49619
[10] = Haemophilus influenzae, ATCC49766
[11] = QC strain H. influenzae ATCC 49766, test date 2021-11-26
[12] = Haemophilus influenzae, ATCC49247, QC strain H. influenzae ATCC 49247, test date 2021-11-11
[13] = Haemophilus influenzae, ATCC49247, QC strain H. influenzae ATCC 49247, test date 2021-11-26

Structure (SMILES): Cc1[nH]c(C(=O)Nc2nc3c(N4CCOCC4)cc(C(=O)O)cc3s2)c(Cl)c1Cl [7a, 2-(3,4-Dichloro-5-methyl-1H-pyrrole-2-carboxamido)-4-morpholinobenzo[d]thiazole-6-carboxylic Acid]
cytotoxic concentration (no cytotoxicity up to) (MCF-7 cell line; with serum, 72 h): > 100 µM | cytotoxic concentration (no cytotoxicity up to) (MCF-7 cell line; without fetal bovine serum): > 100 µM | cytotoxic concentration (no cytotoxicity up to) (HepG2 cell line; with serum, 72 h): > 100 µM | cytotoxic concentration (no cytotoxicity up to) (HepG2 cell line; without fetal bovine serum): > 100 µM | IC50 (P. aeruginosa DNA gyrase): < 10 nM | MIC ([1]; ATCC25922, E. coli ATCC 25922): 8 µg/mL (≈ 17.6 µM) | MIC ([1]; ATCC25922, E. coli CGSC 5163 D22, lps mutant, hypersensitive): 2 µg/mL (≈ 4.39 µM) | MIC ([1]; ATCC25922, E. coli CH3130 ΔtolC, efflux-defective): < 0.125 µg/mL | Cumulative % at MIC [2]: 50.0% and 100.0% | No. of isolates at MIC [2]: 6 | No. of isolates at MIC ([2]; MIC 0.06 µg/mL): 6 | MIC ([2]; isolate IHMA 1123853): ≤ 0.03 µg/mL | MIC ([2]; isolate IHMA 1130935): ≤ 0.03 µg/mL | MIC ([2]; isolate IHMA 1130989): 0.06 µg/mL (≈ 0.132 µM) | MIC ([2]; isolate IHMA 1130991): 0.06 µg/mL (≈ 0.132 µM) | MIC ([2]; isolate IHMA 1137292): 0.06 µg/mL (≈ 0.132 µM) | MIC ([2]; isolate IHMA 1145734): ≤ 0.03 µg/mL | MIC ([2]; isolate IHMA 1145735): ≤ 0.03 µg/mL | MIC ([2]; isolate IHMA 1165897): ≤ 0.03 µg/mL | MIC ([2]; isolate IHMA 1194748): ≤ 0.03 µg/mL | MIC ([2]; isolate IHMA 1194750): 0.06 µg/mL (≈ 0.132 µM) | MIC ([2]; isolate IHMA 1546199): 0.06 µg/mL (≈ 0.132 µM) | MIC ([2]; isolate IHMA 1546215): 0.06 µg/mL (≈ 0.132 µM) | MIC, all isolates [2]: ≤ 0.06 µg/mL | MIC (S. pneumoniae ATCC 49619 [3]; [8]): 0.25 µg/mL (≈ 0.549 µM) | MIC (S. pneumoniae ATCC 49619 [3]; [9]): 0.25 µg/mL (≈ 0.549 µM) | MIC (H. influenzae ATCC 49766; [10]): 0.25 µg/mL (≈ 0.549 µM) | MIC (H. influenzae ATCC 49766; [11]): 0.25 µg/mL (≈ 0.549 µM) | MIC (H. influenzae ATCC 49247 [4]; [12]): 0.25 µg/mL (≈ 0.549 µM) | MIC (H. influenzae ATCC 49247 [4]; [13]): 0.06 µg/mL (≈ 0.132 µM) | MIC [5]: ≤ 0.03 µg/mL | hemolysis at 45 min, 100 μM (hemolysis assay): 0.28 ± 0.01%

Structure (SMILES): Cc1[nH]c(C(=O)Nc2nc3c(N4[C@@H]5CC[C@H]4COC5)cc(C(=O)O)cc3s2)c(Cl)c1Cl [7h, 4-((1R,5S)-3-Oxa-8-azabicyclo[3.2.1]octan-8-yl)-2-(3,4-dichloro-5-methyl-1H-pyrrole-2-carboxamido)benzo[d]thiazole-6-carboxylic Acid]
No. of isolates at MIC [2]: 8 and 4 | Cumulative % at MIC ([2]; MIC 0.06 µg/mL): 100.0% | Cumulative % at MIC ([2]; MIC ≤0.03 µg/mL): 66.7% | MIC ([2]; isolate IHMA 1123853): ≤ 0.03 µg/mL | MIC ([2]; isolate IHMA 1130935): ≤ 0.03 µg/mL | MIC ([2]; isolate IHMA 1130989): 0.06 µg/mL (≈ 0.125 µM) | MIC ([2]; isolate IHMA 1130991): ≤ 0.03 µg/mL | MIC ([2]; isolate IHMA 1137292): 0.06 µg/mL (≈ 0.125 µM) | MIC ([2]; isolate IHMA 1145734): ≤ 0.03 µg/mL | MIC ([2]; isolate IHMA 1145735): ≤ 0.03 µg/mL | MIC ([2]; isolate IHMA 1165897): ≤ 0.03 µg/mL | MIC ([2]; isolate IHMA 1194748): ≤ 0.03 µg/mL | MIC ([2]; isolate IHMA 1194750): ≤ 0.03 µg/mL | MIC ([2]; isolate IHMA 1546199): 0.06 µg/mL (≈ 0.125 µM) | MIC ([2]; isolate IHMA 1546215): 0.06 µg/mL (≈ 0.125 µM) | MIC, all isolates [2]: ≤ 0.06 µg/mL | MIC (S. pneumoniae ATCC 49619 [3]; [8]): 0.25 µg/mL (≈ 0.519 µM) | MIC (S. pneumoniae ATCC 49619 [3]; [9]): 0.25 µg/mL (≈ 0.519 µM) | MIC (H. influenzae ATCC 49766; [10]): 0.25 µg/mL (≈ 0.519 µM) | MIC (H. influenzae ATCC 49766; [11]): 0.25 µg/mL (≈ 0.519 µM) | MIC (H. influenzae ATCC 49247 [4]; [12]): 0.25 µg/mL (≈ 0.519 µM) | MIC (H. influenzae ATCC 49247 [4]; [13]): 0.06 µg/mL (≈ 0.125 µM) | MIC (H. influenzae ATCC 49247 [4]; QC strain H. influenzae ATCC 49247, test date 2021-11-11): 0.5 µg/mL (≈ 1.04 µM) | MIC [5]: ≤ 0.03 µg/mL

MIC (S. pneumoniae ATCC 49619 [3]; [8]): 0.06 µg/mL (≈ 0.172 µM) | MIC (S. pneumoniae ATCC 49619 [3]; Streptococcus pneumoniae, ATCC49619, QC strain S. pneumoniae ATCC 49619, test date 2021-11-11, read-out: MIC): 0.06 µg/mL (≈ 0.172 µM) | MIC (H. influenzae ATCC 49766; Haemophilus influenzae, ATCC49766, QC strain H. influenzae ATCC 49766, test date 2021-11-11, read-out: MIC): 0.12 µg/mL (≈ 0.343 µM) | MIC (H. influenzae ATCC 49766; [11]): 0.12 µg/mL (≈ 0.343 µM) | MIC (H. influenzae ATCC 49247 [4]; Haemophilus influenzae, ATCC49247, QC strain H. influenzae ATCC 49247, test date 2021-11-11, read-out: MIC): 4 µg/mL (≈ 11.4 µM) | MIC (H. influenzae ATCC 49247 [4]; Haemophilus influenzae, ATCC49247, QC strain H. influenzae ATCC 49247, test date 2021-11-26, read-out: MIC): 4 µg/mL (≈ 11.4 µM)
Structure (SMILES): CC1(C)S[C@@H]2[C@H](NC(=O)[C@H](N)c3ccccc3)C(=O)N2[C@H]1C(=O)O [Ampicillin, ampicillin]
MIC, CLSI Range (E. faecalis ATCC 29212): 0,5 - 2 µg/mL | MIC, CLSI Range (E. coli ATCC 25922): 2 to 8 µg/mL | MIC, CLSI Range (H. influenzae ATCC 49247 [6]): 2 to 8 µg/mL | MIC, CLSI Range (S. pneumoniae ATCC 49619 [7]): 0,06 - 0,25 µg/mL
